{
  "source": "patent US12102432B2",
  "about": "“Uses of transdermal glomerular filtration rate measurement in continuous renal replacement therapy” (MediBeacon Inc., priority 2018, dated 2024)",
  "key": {"[1]": {"assay": "Adsorption of MB-102 to CRRT apparatus, in vitro CVVH model", "format": "in vitro ADME, bovine", "settings": "for mean percent change at the end of experiment: average of 6 experiments, 60 min", "procedure": "As an initial step, it was determined if the compound MB-102 adsorbs onto the hemodiafilter, tubing or other parts of the CRRT instrument. This study used a continuous venovenous hemofiltration (CVVH) configuration to assess MB-102 adsorptive clearance with a previously validated in vitro CVVH model using 1 L of pH regulated, citrate-anti-coagulated bovine blood. Using a Braun DIAPACT™ CRRT system, two different hemodiafilters were tested: the HF1400 and the M150 hemodiafilters. New bovine blood, hemodiafilters, and CRRT tubing sets were used in each experiment. The blood was continuously stirred and maintained at 37° C. in a water bath during all experiments. Reconstituted MB-102 was added to the blood to achieve a final concentration of ˜6.2 mg/L. Urea was used as a control and added to the blood to produce a blood urea nitrogen (BUN) concentration of ˜75 mg/dL. Blood flow rates of 200 mL/min with an ultrafiltration rate (Quf) of 33 mL/min were tested. This maximized MB-102 contact with the membranes, both on the blood side and via convection through the hemodiafilter membrane. A closed system was developed to maintain a constant volume in the extracorporeal system. The effluent was used as the replacement fluid which was returned to the blood as a post-filter replacement fluid to maintain a constant blood volume. The CRRT instrument was primed with normal saline before operation, consequently the urea and MB-102 dilution caused by the residual priming solution was accounted for. Blood samples were collected from the pre-filter port at 0 (baseline), 5 (at which time mixing was complete), 10, 20, 30, and 60 minutes. Each experiment was repeated six times with new hemodiafilters and tubing sets.\nEquations used to calculate the dilution factor and adsorption are as follows:\n[formula] wherein C0 is the concentration of MB-102 in the pre-filter at time=0 minutes; and C60 is the concentration of MB-102 in the pre-filter at time=60 minutes.\n[formula] where [Urea0] is the urea concentration in the pre-filter at time=0 minutes; and [Urea60] is the urea concentration in the pre-filter at time=60 minutes.\nAll blood samples were collected and centrifuged at 3000 rpm for 10 minutes. The plasma and effluent samples were transferred to cryovials in duplicate and stored at −80° C. until analysis. BUN concentrations were analyzed with Advia 1800 (Siemens Healthcare Diagnostic Inc., Tarrytown, N.Y., USA) having a lower limit of quantification of 5 mg/dL. […]"}, "[2]": {"assay": "In vivo clearance by CVVH in porcine model with bilateral nephrectomy", "design": "species or system Swine", "procedure": "Swine (3 male and 3 female, for both CVVH and CVVHD modalities) weighing 35-40 kg were used. In this model, a total functional nephrectomy was achieved by ligation of all renal arteries. Animals were inspected by professional veterinary staff within 48 hours of arrival. Any underlying infections or parasitism was treated based on veterinary recommendations.\nPrior to study, the animals were fasted overnight (with water ad libitum) to reduce the risk of aspiration. On the morning of the study, animals were sedated with an intramuscular injection of Telazol/Xylazine (or a Ketamine/xylazine combination) at recommended doses and transported to the operating theatre. Pigs were then anesthetized via inhalation of 5% isoflurane in oxygen via mask. A catheter was placed in the marginal ear vein to provide immediate venous access for further medications and IV fluids.\nPigs were orotracheally intubated and the isoflurane concentration reduced to 1%-3% to maintain anesthesia for the duration of the experiment. Pigs were mechanically ventilated using a tidal volume of 10 mL/kg and respiratory rate adjusted to keep a P(CO2) of 40±2 mmHg. A three lead electrocardiogram was used to monitor heart rate and rhythm. Core body temperature was measured with a rectal thermistor probe and maintained at 37-39° C. with the use of a circulating water blanket.\nHair was removed from the ventral neck, abdominal and/or the femoral regions, and these sites were prepared for aseptic surgery. Lidocaine was injected at incision site(s). When a surgical plane of anesthesia was reached, the right carotid artery was approached via cut down incision and cannulated for continuous blood pressure monitoring. This facilitated withdrawal of blood samples for the study and for the determination of respiratory gases, acid-base status and glucose concentration. A catheter was placed in the right jugular/femoral vein to infuse medications or replacement fluids and an 11 Fr hemodialysis catheter was placed into the left jugular vein for both CVVH and CVVHD procedures.\nThe abdomen was then opened via a midline laparotomy. The renal hilum was identified, and ties were placed around the renal artery or arteries: for partial or total ligation as dictated by study requirements (full-function nephrectomy via total ligation of all renal arteries, and full-function nephrectomy of one kidney and partial ligation of the second kidney). Perivascular flow probes were placed around the proximal renal artery of the kidneys in situ, as required. […] A purse-sting suture was placed in the urinary bladder and a small cystotomy incision was performed to advance a Foley catheter for urine collection and quantification, as required.\nDue to the length of time of study, the abdomen was closed in 2-3 layers with appropriate suture material to prevent desiccation of tissues. Suture patterns allowed for external extension of tubing and flow probe lines for equipment attachment as required. Following complete instrumentation, the pig was stabilized. Vital signs were monitored continuously and, once stable, either the CVVH and CVVHD experiment was initiated.\nAfter taking a pre-MB-102 blood sample (baseline), a dose of 6 mg/kg of MB-102 was injected as a single bolus, followed by a 90 minute period of equilibration, to allow for MB-102 systemic redistribution (see FIGS. 7 and 13 for equilibration of fluorescent signal detected by the renal monitoring assembly). Thirty minutes after the MB-102 injection, Meropenum was infused for 30 minutes, which reached a peak concentration in blood ˜1 hr after the start of the infusion. After drug equilibration, CRRT was initiated (either CVVH or CVVHD) at a blood flow rate (BFR) of 100 mL/min with corresponding 20 mL/kg/hr effluent rate during a time-course of 90 minutes (with collections at 0, 30, 60, 90 minutes). […]"}, "[3]": {"assay": "In vivo clearance by CVVHD in porcine model with bilateral nephrectomy", "design": "species or system Swine"}, "[4]": {"settings": "stated as pharmacokinetic parameter, no test described; cited from earlier work"}, "[5]": {"settings": "assembly on chest (QLS26), blood flow rate 100, effluent flow rate 20 mL/min, 1st of four regions"}, "[6]": {"settings": "assembly on chest (QLS26), blood flow rate 100, effluent flow rate 20 mL/min, 3rd of four regions"}, "[7]": {"settings": "assembly on chest (QLS26), blood flow rate 200, effluent flow rate 35 mL/min, 2nd of four regions"}, "[8]": {"settings": "assembly on chest (QLS26), blood flow rate 200, effluent flow rate 35 mL/min, 4th of four regions"}, "[9]": {"settings": "assembly on sternum (QLS25), blood flow rate 100, effluent flow rate 20 mL/min, 1st of four regions"}, "[10]": {"settings": "assembly on sternum (QLS25), blood flow rate 100, effluent flow rate 20 mL/min, 3rd of four regions"}, "[11]": {"settings": "assembly on sternum (QLS25), blood flow rate 200, effluent flow rate 35 mL/min, 2nd of four regions"}, "[12]": {"settings": "assembly on sternum (QLS25), blood flow rate 200, effluent flow rate 35 mL/min, 4th of four regions"}},
  "note": "“Also recorded” adds a separate entry of the source.",
  "data": [
    {"smiles": "Nc1nc(C(=O)N[C@H](CO)C(=O)O)c(N)nc1C(=O)N[C@H](CO)C(=O)O", "note": "[MB-102, (2R,2′R)-2,2′-((3,6-diaminopyrazine-2,5-dicarbonyl)bis(azanediyl))bis(3-hydroxypropanoic acid)]", "values": [
      {"measurement": "adsorption to CRRT materials (tubing, hemodiafilters)", "setting": "[1]; HF1400 and M150 hemodiafilters", "result": "not observed; also recorded: does not bind"},
      {"measurement": "mean percent change at the end of experiment", "setting": "[1]; HF1400 hemodiafilter", "result": 18.7, "unit": "%"},
      {"measurement": "mean percent change at the end of experiment", "setting": "[1]; M150 hemodiafilter", "result": 18.9, "unit": "%"},
      {"measurement": "MB-102 Clearance Rate Constant", "setting": "[2]; [5]", "result": 0.1129, "unit": "h⁻¹"},
      {"measurement": "RDTC", "setting": "[2]; [5]", "result": 8.86, "unit": "h"},
      {"measurement": "MB-102 Clearance Rate Constant", "setting": "[2]; [6]", "result": 0.0879, "unit": "h⁻¹"},
      {"measurement": "RDTC", "setting": "[2]; [6]", "result": 11.38, "unit": "h"},
      {"measurement": "MB-102 Clearance Rate Constant", "setting": "[2]; [7]", "result": 0.1314, "unit": "h⁻¹"},
      {"measurement": "RDTC", "setting": "[2]; [7]", "result": 7.61, "unit": "h"},
      {"measurement": "MB-102 Clearance Rate Constant", "setting": "[2]; [8]", "result": 0.1308, "unit": "h⁻¹"},
      {"measurement": "RDTC", "setting": "[2]; [8]", "result": 7.64, "unit": "h"},
      {"measurement": "MB-102 Clearance Rate Constant", "setting": "[2]; [9]", "result": 0.1145, "unit": "h⁻¹"},
      {"measurement": "RDTC", "setting": "[2]; [9]", "result": 8.73, "unit": "h"},
      {"measurement": "MB-102 Clearance Rate Constant", "setting": "[2]; [10]", "result": 0.0763, "unit": "h⁻¹"},
      {"measurement": "RDTC", "setting": "[2]; [10]", "result": 13.11, "unit": "h"},
      {"measurement": "MB-102 Clearance Rate Constant", "setting": "[2]; [11]", "result": 0.145, "unit": "h⁻¹"},
      {"measurement": "RDTC", "setting": "[2]; [11]", "result": 6.90, "unit": "h"},
      {"measurement": "MB-102 Clearance Rate Constant", "setting": "[2]; [12]", "result": 0.1238, "unit": "h⁻¹"},
      {"measurement": "RDTC", "setting": "[2]; [12]", "result": 8.08, "unit": "h"},
      {"measurement": "MB-102 Clearance Rate Constant", "setting": "[3]; [5]", "result": 0.1439, "unit": "h⁻¹"},
      {"measurement": "RDTC", "setting": "[3]; [5]", "result": 6.94, "unit": "h"},
      {"measurement": "RDTC", "setting": "[3]; [6]", "result": 11.87, "unit": "h"},
      {"measurement": "MB-102 Clearance Rate Constant", "setting": "[3]; [7]", "result": 0.1769, "unit": "h⁻¹"},
      {"measurement": "RDTC", "setting": "[3]; [7]", "result": 5.65, "unit": "h"},
      {"measurement": "MB-102 Clearance Rate Constant", "setting": "[3]; [8]", "result": 0.1192, "unit": "h⁻¹"},
      {"measurement": "RDTC", "setting": "[3]; [8]", "result": 8.39, "unit": "h"},
      {"measurement": "MB-102 Clearance Rate Constant", "setting": "[3]; [9]", "result": 0.1174, "unit": "h⁻¹"},
      {"measurement": "RDTC", "setting": "[3]; [9]", "result": 8.52, "unit": "h"},
      {"measurement": "MB-102 Clearance Rate Constant", "setting": "[3]; [10]", "result": 0.0871, "unit": "h⁻¹"},
      {"measurement": "RDTC", "setting": "[3]; [10]", "result": 11.48, "unit": "h"},
      {"measurement": "MB-102 Clearance Rate Constant", "setting": "[3]; [11]", "result": 0.1870, "unit": "h⁻¹"},
      {"measurement": "RDTC", "setting": "[3]; [11]", "result": 5.35, "unit": "h"},
      {"measurement": "MB-102 Clearance Rate Constant", "setting": "[3]; [12]", "result": 0.1288, "unit": "h⁻¹"},
      {"measurement": "RDTC", "setting": "[3]; [12]", "result": 7.76, "unit": "h"},
      {"measurement": "protein binding", "setting": "[4]", "result": 0, "unit": "%"}
    ]}
  ]
}
